In patent US20050208037A1, “Thioredoxin increases redox-cycling of anticancer agents thereby sensitizes cancer cells to apoptosis” (Board of Regents, The University of Texas System, priority 2003, published 2005):
Counter-ions that a name gives are not always drawn.

What was measured:
[1] = target: T1, E. coli thioredoxin reductase-thioredoxin system (Escherichia coli, UniProt P0A9P4); test: Superoxide detection by cytochrome c reduction assay with thioredoxin system; assay type: biochemical
T1 construct: purchased American Diagnostica Inc (thioredoxin reductase); Promega Inc (thioredoxin)
T1 sequence (P0A9P4 2-321): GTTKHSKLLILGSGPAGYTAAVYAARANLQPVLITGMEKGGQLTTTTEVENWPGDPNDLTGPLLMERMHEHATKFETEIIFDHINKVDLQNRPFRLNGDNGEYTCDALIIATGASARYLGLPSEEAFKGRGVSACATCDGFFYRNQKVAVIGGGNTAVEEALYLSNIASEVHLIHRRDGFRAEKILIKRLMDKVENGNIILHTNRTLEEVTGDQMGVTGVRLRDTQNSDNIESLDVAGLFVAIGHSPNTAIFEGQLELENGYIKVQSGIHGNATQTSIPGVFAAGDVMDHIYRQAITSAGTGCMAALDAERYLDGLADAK
Procedure: Superoxide detection by cytochrome c reduction assay. Superoxide (O2—) generated in the process of redox-cycling was detected by SOD inhibitable rate of ferricytochrome c reduction (Das et al., 2000). The reaction mixture contained 0.05 M potassium phosphate buffer (pH 7.78), 1 mM EDTA, 10 μM cytochrome c and 200 μM NADPH. […] The rate of […] of cytochrome c was measured at 550 nm for 0-15 minutes using Shimadzu UV-1601PC in kinetic mode. Reaction blank contained potassium phosphate buffer, cytochrome c and NADPH with or without SOD, and controls included 0.35-0.7 μg TR and /or Trx in buffer. All reactions were performed in triplicate.

A549 cells [2] = test: ROS detection by DCF-DA fluorescence; assay type: cell-based, human
Procedure: In situ detection of superoxide by fluorescent probe DiCarboxyFluorescein-DiAcetate (DCF-DA). […] Cells were pre-incubated with 20 μM DCF-DA (Sigma, St. Louis, Mo.) in 20 mM Hepes in Phosphate Buffered Saline (PBS) containing bovine serum albumin (BSA, 5 mg/ml) at 37° C. for 30 min followed by washing with PBS buffer, and the drug was added and observed for 10-15 min in a Nikon laser confocal microscope using laser beam wavelength 488 nm analyzed by Ultraview software (Perkin-Elmer).

p53 in A549 cells = test: EMSA of p53 DNA binding; assay type: cell-based, human; settings: E. coli Trx 32 μM 16 h followed by daunomycin 1 μM 4 h
Procedure: Nuclear Extract preparation. Nuclear extract was prepared as described previously (Das, 2001). […] The extracts were then centrifuged at 14,000 rpm for 25 min and the supernatant was saved as nuclear extract in −70° C. for further experiments. Protein was quantified using Bradford protein assay (Biorad).
Electrophoretic Mobility shift assay (EMSA). For the EMSA the p53 consensus oligonucleotide was obtained from Genosys 5′-[…]-3′ (SEQ ID NO:9) and end labeled using T4 Poly nucleotide kinase (New England Biolabs, Beverly, Mass.) and [γ-^32P] ATP (Perkin Elmer, Boston, Mass.) in 10× kinase buffer supplied with the enzyme. […] The nuclear protein was separated by electrophoresis using 4% native polyacrylamide gel and 0.25× of TBE (Tris-Borate-EDTA) as running buffer. The gels were dried and exposed to Kodax Biomax X-ray film overnight.

A549 cells [3] = settings: E. coli thioredoxin 32 μM 16 hr followed by daunomycin 1 μM 4 hr
Description: TUNEL assay. Apoptotic cells were detected using In Situ Cell Death detection, POD kit (Roche Molecular Biochemicals, Indianapolis, Ind.). Apoptotic DNA strand breaks were identified by labeling 3′-OH termini with fluorescein-dUTP using Terminal deoxy Transferase as per manufacturer's protocol. For this assay cells were allowed to adhere overnight in chambered glass slides (Nunc) to a final density of 25,000 cells per well. Followed by treatment with the appropriate concentration of drugs the media was removed and washed twice with PBS containing 1% BSA and the cells fixed in 4% paraformaldehyde for 30 min and washed with PBS containing 1% BSA. The cells were then permeabilized with 0.1% Triton X-100 in 0.1% sodium citrate for 2 min on ice and washed twice with PBS containing 1% BSA. The labeling reaction was performed using FITC labeled dUTP along with other nucleotides by terminal deoxynucleotidyl transferase for 60 mins in dark at 37° C. in humidified chamber. The cells were washed with PBS-1% BSA, mounted onto a slide, and the incorporated fluorescein-dUTP was analyzed using Nikon laser confocal microscope.

[4] = target: T2, human thioredoxin reductase (Homo sapiens, UniProt Q16881); settings: cited from earlier work
T2 sequence (Q16881 151-649 limits assumed): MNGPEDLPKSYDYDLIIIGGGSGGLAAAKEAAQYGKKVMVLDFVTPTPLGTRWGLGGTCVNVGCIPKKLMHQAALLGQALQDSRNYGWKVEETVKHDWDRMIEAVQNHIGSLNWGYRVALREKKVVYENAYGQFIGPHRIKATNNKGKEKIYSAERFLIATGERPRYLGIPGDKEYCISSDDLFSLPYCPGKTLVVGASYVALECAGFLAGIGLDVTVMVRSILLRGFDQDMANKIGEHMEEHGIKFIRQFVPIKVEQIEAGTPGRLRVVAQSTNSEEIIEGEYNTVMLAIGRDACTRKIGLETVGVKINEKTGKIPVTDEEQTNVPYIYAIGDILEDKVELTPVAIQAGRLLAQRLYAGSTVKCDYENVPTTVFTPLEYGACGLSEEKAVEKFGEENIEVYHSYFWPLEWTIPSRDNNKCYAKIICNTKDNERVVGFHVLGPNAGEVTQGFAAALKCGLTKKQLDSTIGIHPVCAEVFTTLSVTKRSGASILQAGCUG

[5] = tested on: Trx9 cells (MCF-7 clones expressing thioredoxin); test: Superoxide production in cell lysate by SOD-inhibitable reduction of ferricytochrome c; assay type: biochemical, human; settings: Trx9 compared to vector-transfected cells; 10 μM drug
Procedure: Determination of superoxide production by reduction of ferricytochrome c. Superoxide production was measured as superoxide dismutase (SOD) inhibitable reduction of ferricytochrome c (Azzi et al. 1975). Cells were sonicated in potassium phosphate buffer (0.05M, pH 7.8 plus 1 mM EDTA), centrifuged and the supernatant was used for the assay. To determine the superoxide generation in the cell lysate, the supernatant was incubated with 10 μM drug and 10 μM cytochrome c, with or without 1U SOD to determine SOD inhibitable rate. The specificity of thioredoxin mediated superoxide generation in the supernatant was detected by pre-incubation of cell lysates with anti-human thioredoxin antibody (American Diagnostica, Greenwich, Conn.) for 15 min. All reactions were performed in triplicate. The reduction of ferricytochrome c was measured both in kinetic and end point mode with path check on for 1 hr duration at a wavelength of 550 nm using a Spectramax 190 plate reader (Molecular Devices). Total protein was quantified using Bradford protein assay (Biorad) and the superoxide generation was determined per milligram of protein in the extracts.

[6] = tested on: Trx9 cells (MCF-7 clones expressing thioredoxin); test: In situ detection of ROS by DCF-DA fluorescence; assay type: cell-based, human; settings: Trx9 compared to vector cells
Procedure: In situ detection of superoxide by fluorescent probe DiCarboxyFluorescein-DiAcetate (DCF-DA). Cells were grown in chambered glass slides (Nunc) to a final density of 25,000 cells per well.

E. coli thioredoxin = target: T3, E. coli thioredoxin (Escherichia coli, UniProt P0AA25); test: Thioredoxin redox state by carboxymethylation and western analysis; assay type: biochemical; settings: TR and doxorubicin
T3 construct: purchased Promega Inc (thioredoxin); American Diagnostica Inc (thioredoxin reductase)
T3 sequence (P0AA25 2-109): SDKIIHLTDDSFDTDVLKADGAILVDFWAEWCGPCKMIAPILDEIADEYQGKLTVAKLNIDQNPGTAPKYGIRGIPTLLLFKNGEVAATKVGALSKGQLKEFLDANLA
Procedure: Carboxymethylation of thioredoxin. In order to analyze the possible role of thioredoxin in the redox-cycling of anthracyclines the redox status of thioredoxin was determined by carboxymethylation at the end of assay. Carboxymethylation was done as described previously (Das et al., 1997). Equal volume of carboxymethylation buffer (0.1 M Tris; pH 8.8, 12 mg/ml iodoacetic acid, 3 mM EDTA, 7 M guanidine hydrochloride, and 0.5% Triton X-100, equilibrated with nitrogen for 1 h) was added and incubated at 37° C. in the dark for 45 min. After incubation the excess reagent was removed using Sephadex G-25 spin column, and the elute was used for western blot detection of thioredoxin.
Western analysis of thioredoxin redox state. […] The protein was transferred to PVDF membrane using a miniprotein transblot apparatus (Bio-Rad). The PVDF membrane was washed and incubated with mouse anti-E. coli Trx IgG (MBL, Nagoya, Japan). After washing, the blot was incubated with anti Mouse IgG- horseradish peroxidase conjugate for 1 h at room temperature. Binding of secondary antibody was detected using an enhanced chemiluminescence (ECL Plus) detection system (Amersham Pharmacia Biotech, Piscataway, N.J.). Western blot was quantified using densitometric analysis software (NIH Image 1.61).

[7] = target: T4, cytochrome P450 reductase (Oryctolagus cuniculus, UniProt P00389); test: Cytochrome P450 reductase mediated SOD-inhibitable superoxide generation; assay type: biochemical, rabbit; settings: 10 μM doxorubicin, Trx-SH alone as electron donor, absence of NADPH
T4 construct: purchased Sigma Chemicals (St. Louis, Mo.); host or cells: rabbit liver
T4 sequence (P00389 1-679): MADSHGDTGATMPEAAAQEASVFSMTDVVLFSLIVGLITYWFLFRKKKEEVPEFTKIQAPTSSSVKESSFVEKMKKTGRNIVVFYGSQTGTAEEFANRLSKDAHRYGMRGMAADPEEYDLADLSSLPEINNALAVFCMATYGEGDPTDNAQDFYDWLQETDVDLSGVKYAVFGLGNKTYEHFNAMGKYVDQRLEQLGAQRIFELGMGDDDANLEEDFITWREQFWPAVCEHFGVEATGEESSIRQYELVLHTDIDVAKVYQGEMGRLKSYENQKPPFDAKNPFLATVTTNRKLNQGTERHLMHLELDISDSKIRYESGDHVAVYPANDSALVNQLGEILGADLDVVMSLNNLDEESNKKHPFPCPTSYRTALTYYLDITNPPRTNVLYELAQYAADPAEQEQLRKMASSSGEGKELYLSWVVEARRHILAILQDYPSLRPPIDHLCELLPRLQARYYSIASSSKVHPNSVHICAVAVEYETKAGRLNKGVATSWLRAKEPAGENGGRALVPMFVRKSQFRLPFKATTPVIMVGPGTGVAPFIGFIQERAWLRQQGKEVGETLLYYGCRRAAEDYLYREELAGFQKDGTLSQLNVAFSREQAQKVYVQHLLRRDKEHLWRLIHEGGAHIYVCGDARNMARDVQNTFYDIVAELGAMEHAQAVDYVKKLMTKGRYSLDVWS
Procedure: Superoxide detection by cytochrome c reduction assay. Superoxide (O2—) generated in the process of redox-cycling was detected by SOD inhibitable rate of ferricytochrome c reduction (Das et al., 2000). […] Reaction blank contained potassium phosphate buffer, cytochrome c and NADPH with or without SOD, and controls included 0.35-0.7 μg TR and /or Trx in buffer. All reactions were performed in triplicate.

[8] = cited from earlier work

| Compound | levels of O2— generated ([1]; addition of 3.2 μM Trx to thioredoxin reductase with daunomycin or doxorubicin) | rate of O2— generation with doxorubicin ([1]; thioredoxin from 1.6 to 6.4 μM, 0.35 μg thioredoxin reductase, 10 μM doxorubicin) | ROS generation (DCF-DA) (A549 cells [2]; E. coli thioredoxin only (32 μM, 16 hr)) | ROS generation (DCF-DA) (A549 cells [2]; pretreated with E. coli thioredoxin (32 μM, 16 hr) followed by 1 μM daunomycin) | p53 DNA binding (p53 in A549 cells) | TUNEL positive nuclei (A549 cells [3]) | Km as a substrate for human thioredoxin reductase [4] [µM] | O2— production [5] | DCF-DA fluorescence (oxidation of DCF-DA) [6] | levels of O2— generated ([1]; drug 10 μM with thioredoxin reductase alone) | SOD inhibitable rate of ferricytochrome c reduction ([1]; drug alone, 10 μM) | rate of superoxide generation as compared to daunomycin ([1]; thioredoxin reductase alone or thioredoxin reductase-thioredoxin system, 10 μM drug) | level of Trx-S2 (oxidized thioredoxin) (E. coli thioredoxin; 28.7% without doxorubicin) [%] | level of reduced thioredoxin (E. coli thioredoxin; Trx, 71.3% in thioredoxin-thioredoxin reductase system only) [%] | SOD inhibitable O2— generation [7] | excreted into the urine ([8]; in vivo) | elimination half-life ([8]; intravenous) | absorption ([8]; oral) |
| --- | --- | --- | --- | --- | --- | --- | --- | --- | --- | --- | --- | --- | --- | --- | --- | --- | --- | --- |
| E. coli thioredoxin: E. coli thioredoxin obtained from Promega; sequence of SEQ ID NO:4 | further enhanced the levels of O2— | proportional increase in the rate of O2— generation | No ROS were detected | significantly higher level of ROS generation | increased p53 DNA binding | increase in TUNEL positive nuclei | 35 | – | – | – | – | – | – | – | – | – | – | – |
| COc1cccc2c1C(=O)c1c(O)c3c(c(O)c1C2=O)C[C@@](O)(C(=O)CO)C[C@@H]3O[C@H]1C[C@H](N)[C@H](O)[C@H](C)O1 [doxorubicin, 5,12-Naphthacenedione, (8 s-cis)-10-[(3-amino-2,3,6-trideoxy-a-L-lyxo-hexopyranosyl)oxy]-7,8,9,10-tetrahydro-6,8,11-trihydroxy-8-(hydroxyacetyl)-1-methoxy-hydrochloride] | – | – | – | – | – | – | – | significantly higher level of O2— | enhanced fluorescence | significantly higher levels of O2— | did not show significant level | two fold increase | 53 | 47 | generated O2— | a few percent | about 30 hr | poorly absorbed |
